In patent publication US20260364184A1, “COMPOUND BASED ON OXOISOINDOLINYL-SUBSTITUTED TETRAHYDROPYRIMIDINE-DIONE AND USE THEREOF” (GLUETACS THERAPEUTICS (SHANGHAI) CO., LTD., priority 2023, published 2026):
Read-outs that look alike come from different tables or passages of the source.

Assays:
[1] = tested on: Human T lymphocytic leukemia cell line (Jurkat); experiment: Inhibition of Jurkat cell proliferation (CellTiter luminescent viability); type: cell-based; conditions: Homo sapiens, Table IF3, AR inhibitor-based, 96 hours; for inhibition at 0.01 µM: 10 nM, read-out: Inhibition Rate at 10 nM (%); for inhibition at 0.5 µM: 500 nM, read-out: Inhibition Rate at 500 nM (%)
Method: (§1) The tumor cells used herein were cultured in a cell culture medium listed in table 3 at 37 °C in an incubator with 5% CO2. Prior to experimentation, all cell lines used were correctly identified by STR profiling, and tested negative for mycoplasma contamination using a mycoplasma detection kit through routine screenings.
(§2) The IC50 values of the compounds of the present disclosure (including the compounds in Table 1, Table 2, and Examples 1-468) were determined using the CellTiter-Meiluncell Luminescent Cell Viability Assay Kit from Dalian Meilun Biotech Co., Ltd. The detailed procedure is as follows: Tumor cells were seeded in 96-well cell culture plates at the densities specified in Table 4. On the following day, the test compounds of the present disclosure were subjected to serial dilution. The dilution can be performed according to one of the following two methods: • (1) The first dilution method: The test compounds of the present disclosure (including the compounds in Table 1, Table 2, and Examples 1-468) were subjected to 5-fold serial dilutions starting from a highest concentration of 2000 μM, resulting in a total of 9 concentrations from high to low (2000, 400, 80, 16, 3.2, 0.64, 0.128, 0.0256, 0.00512 μM). Subsequently, 0.5 μL of the test compound dilution was transferred into the 96-well plate containing the cells, with each well containing 100 μL of cell culture medium. […] Into the 96-well plate, the diluted test compounds and corresponding detection reagents were added, resulting in final test compound concentrations of 500 nM and 10 nM, respectively. The experimental procedure is described below using the diluted 2 μM test compound as an example.
(§3) 0.5 μL of the aforementioned diluted compound of the present disclosure (including the compounds in Table 1, Table 2, and Examples 1-468) was added to the seeded cells in 100 μL of medium, yielding a final test compound concentration of 10 nM. After the cells were treated with the compounds of the present disclosure for a specified period, the cell viability assay reagent was added to the culture medium according to the kit's instructions to determine cell viability. […] All controls were treated using the same procedure as the compounds of the present disclosure. The growth inhibition curves for the compounds of the present disclosure were plotted using Prism GraphPad software, and the IC50 values were calculated therefrom.

[2] = tested on: Human acute lymphocytic leukemia T lymphocytes cell line (CCRF-CEM); experiment: Inhibition of CCRF-CEM cell proliferation (CellTiter luminescent viability); type: cell-based; conditions: Homo sapiens, 96 h, Table IF2, AR inhibitor-based; for inhibition at 0.01 µM: 10 nM, read-out: Inhibition Rate at 10 nM (%); for inhibition at 0.5 µM: 500 nM, read-out: Inhibition Rate at 500 nM (%)
Method: as §1, §2, §3

[3] = tested on: Human diffuse large B-cell lymphoma cell line (TMD8); experiment: Inhibition of TMD8 cell proliferation (CellTiter luminescent viability); type: cell-based; conditions: Homo sapiens, TMD8, 96 h, Table IF1, AR inhibitor-based; for inhibition at 0.01 µM: TMD8, 10 nM, read-out: Inhibition Rate at 10 nM (%); for inhibition at 0.5 µM: TMD8, 500 nM, read-out: Inhibition Rate at 500 nM (%)
Method: as §1, §2, §3

[4] = Inhibition of RPMI-8226 cell proliferation (CellTiter luminescent viability); type: cell-based; conditions: Homo sapiens, read-out: Inhibition Rate at 10 nM (%)
Method: as §1, §2, §3

[5] = tested on: Human B-Cell Lymphoma Cells (RPMI-8226); experiment: as above; type: cell-based; conditions: RPMI-8226, 500 nM, read-out: Inhibition Rate at 500 nM (%)
Method: as §1, §2, §3

[6] = tested on: Human large cell immunoblastic lymphoma cell line SR; experiment: Inhibition of SR cell proliferation (CellTiter luminescent viability); type: cell-based; conditions: Table IB1, ALK inhibitor-based, 96 hours, read-out: Inhibitory activity (IC50, nM) on tumor cell proliferation, SR
Method: as §1, §2, §3

[7] = target: T1, human Cereblon WT GST-tagged protein (CRBN) (Homo sapiens, UniProt Q96SW2); experiment: CRBN binding by HTRF (Cereblon binding kit)
T1 construct: purchased CISBIO 64BDCRBNPEH
T1 sequence (Q96SW2 whole entry): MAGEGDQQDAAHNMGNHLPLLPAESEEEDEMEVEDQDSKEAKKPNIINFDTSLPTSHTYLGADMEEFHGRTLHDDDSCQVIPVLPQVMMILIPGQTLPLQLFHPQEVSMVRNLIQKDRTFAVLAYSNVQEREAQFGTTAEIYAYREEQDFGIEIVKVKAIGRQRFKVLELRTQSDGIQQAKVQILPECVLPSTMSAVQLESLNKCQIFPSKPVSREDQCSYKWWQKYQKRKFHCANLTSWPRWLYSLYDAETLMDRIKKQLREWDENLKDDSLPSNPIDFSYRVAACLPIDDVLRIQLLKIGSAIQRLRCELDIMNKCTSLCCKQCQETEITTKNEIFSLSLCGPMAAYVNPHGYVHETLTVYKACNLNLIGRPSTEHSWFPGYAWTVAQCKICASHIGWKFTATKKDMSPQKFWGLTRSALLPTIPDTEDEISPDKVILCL
Method: The CEREBLON BINDING kits (specification: 10,000 tests; product number: Catalog #64BDCRBNPEH; CISBIO company) was used to determine the CRBN binding ability of the compounds to be tested through a HTRF method (homogeneous time-resolved fluorescence). The specific methods are as follows: • 1. According to the instructions of the CEREBLON BINDING KITS, serial dilutions were performed for the test compounds of the present disclosure (including the compounds in Table 1, Table 2, and Examples 1-468) and for lenalidomide. Specifically, diluent #9 (1×) solution was used as the diluent, and multiple concentration gradients were set. The dilution operation can be performed according to one of the following two methods: • (1) The first dilution method: The test compounds of the present disclosure (including the compounds in Table 1, Table 2, and Examples 1-468) were subjected to 5-fold serial dilutions starting from a highest concentration of 40 μM, resulting in a total of 7 concentrations from high to low (40, 8, 1.6, 0.32, 0.064, 0.0128, 0.00256 μM). Subsequently, the diluted test compounds and corresponding detection reagents were added to each well of a 96-well plate, resulting in final test compound concentrations of 10, 2, 0.4, 0.08, 0.016, 0.0032, and 0.00064 μM, respectively. • (2) As an alternative, a second dilution method can be used: The test compounds of the present disclosure (including the compounds in Table 1, Table 2, and Examples 1-468) were subjected to 4-fold gradient dilutions starting from a highest concentration of 8 μM, resulting in 2 concentrations (8 μM, 2 μM). Into the 96-well plate, the diluted test compounds and corresponding detection reagents were added, resulting in final test compound concentrations of 2 μM and 0.5 μM, respectively. The experimental procedure is described below using the diluted 8 μM test compound and lenalidomide solutions as examples. • 2. 2.5 μL of the above 8 μM of the tested compounds and lenalidomide solution, as well as the same volume of diluent #9 (1×) solution (solvent control group, Std0) were added to each well of a 96-well plate, respectively. Then, 2.5 μL of human Cereblon WT GST-tagged protein solution was added to each well. Finally, 5 μL of the thoroughly mixed Thalidomide-Re reagent and GST Eu antibody working solution were added to each of the aforementioned wells. The final concentration of the tested compounds and lenalidomide in each well was 2 μM. • 3. The blank control wells were sequentially added with 2.5 μL of diluent #9 (1×) solution, 2.5 μL of PROTAC binding buffer, and 5 μL of thoroughly mixed Thalidomide-Re reagent and GST Eu antibody working solution. • 4. After sealing and incubating the solutions in the aforementioned wells at room temperature for 3 hours, the absorbance values at emission wavelengths of 620 nm and 665 nm were detected by the HTRF method using a Spark microplate reader (V3.1 SP1).
The corresponding CRBN binding inhibition rate was calculated using the following method:
Rcompound=OD 665 nmcompound/OD 620 nmcompound−OD 665 nmcontrol/OD 620 nmcontrol
RStd0=OD 665 nmStd0/OD 620 nmStd0−OD 665 nmcontrol/OD 620 nmcontrol inhibition rate (%)=(1−Rcompound/RStd0)*100
Note: OD 665 nmcompound is the absorbance value of each well of the compounds to be tested of the present disclosure at an emission wavelength of 665 nm. OD 620 nmcompound is the absorbance value of each well of the compounds to be tested of the present disclosure at an emission wavelength of 620 nm. OD 665 nmcontrol is the absorbance value of the blank control well at an emission wavelength of 665 nm. OD 620 nmcontrol is the absorbance value of the blank control well at an emission wavelength of 620 nm. OD 665 nmStd0 is the absorbance value of the solvent control well at an emission wavelength of 665 nm. OD 620 nmStd0 is the absorbance value of the solvent control well at an emission wavelength of 620 nm.

Compound	inhibition at 0.01 µM [1] [%]	inhibition at 0.5 µM [1] [%]	inhibition at 0.01 µM [2] [%]	inhibition at 0.5 µM [2] [%]	inhibition at 0.01 µM [3] [%]	inhibition at 0.5 µM [3] [%]	inhibition at 0.01 µM ([4]; Table IA4, IRAK4 inhibitor-based, RPMI-8226, 10 nM, 96 hours) [%]	inhibition at 0.5 µM ([5]; Table IA4, IRAK4 inhibitor-based, 96 hours) [%]	inhibition at 0.01 µM ([4]; RPMI-8226, 10 nM) [%]	inhibition at 0.5 µM [5] [%]	IC50 [6] [nM]	Inhibition Rate at 0.5 μM (%) ([7]; 0.5 μM)	Inhibition Rate at 2 μM (%) ([7]; 2 μM)
CNC(=O)c1ccc(N2C(=S)N(c3ccc(C#N)c(C(F)(F)F)c3)C(=O)C2(C)C)cc1F [Enzalutamide, reference compound]	5 to 10	5 to 10	0 to 5	0 to 5	10 to 15	10 to 15							
N#Cc1ccc(O[C@H]2CC[C@H](NC(=O)c3ccc(N4CCC(CN5C[C@H]6C[C@@H]5CN6c5ccc6c(c5)C(=O)N(N5CCC(=O)NC5=O)C6=O)CC4)nn3)CC2)cc1Cl [GT-05227, N-((1r,4r)-4-(3-chloro-4-cyanophenoxy)cyclohexyl)-6-(4-(((1R,4R)-5-(2-(2,4-dioxotetrahydropyrimidin-1(2H)-yl)-1,3-dioxoisoindolin-5-yl)-2,5-diazabicyclo[2.2.1]heptan-2-yl)methyl)piperidin-1-yl)pyridazine-3-carboxamide]	5 to 10	20 to 30	20 to 30	20 to 30	15 to 20	25 to 30							
N#Cc1ccc(O[C@H]2CC[C@H](NC(=O)c3ccc(N4CCC(CN5CCN(c6cccc7c6C(=O)N(N6CCC(=O)NC6=O)C7=O)CC5)CC4)nn3)CC2)cc1Cl [GT-05230, N-((1r,4r)-4-(3-chloro-4-cyanophenoxy)cyclohexyl)-6-(4-((4-(2-(2,4-dioxotetrahydropyrimidin-1(2H)-yl)-1,3-dioxoisoindolin-4-yl)piperazin-1-yl)methyl)piperidin-1-yl)pyridazine-3-carboxamide]	10 to 15	20 to 30	10 to 15	20 to 30	5 to 10	20 to 25							
N#Cc1ccc(O[C@H]2CC[C@H](NC(=O)c3ccc(N4CCC(CN5CC6CC(C5)N6c5ccc6c(c5)C(=O)N(N5CCC(=O)NC5=O)C6=O)CC4)nn3)CC2)cc1Cl [GT-05231, N-((1r,4r)-4-(3-chloro-4-cyanophenoxy)cyclohexyl)-6-(4-((6-(2-(2,4-dioxotetrahydropyrimidin-1(2H)-yl)-1,3-dioxoisoindolin-5-yl)-3,6-diazabicyclo[3.1.1]heptan-3-yl)methyl)piperidin-1-yl)pyridazine-3-carboxamide]	10 to 15	30 to 40	5 to 10	30 to 40	5 to 10	40 to 60							
N#Cc1ccc(O[C@H]2CC[C@H](NC(=O)c3ccc(N4CCC(CN5CCN(C6CCN(c7ccc8c(c7)C(=O)N(N7CCC(=O)NC7=O)C8=O)CC6(F)F)CC5)CC4)nn3)CC2)cc1Cl (stereo partly shown) [GT-05235, N-((1r,4r)-4-(3-chloro-4-cyanophenoxy)cyclohexyl)-6-(4-((4-(1-(2-(2,4-dioxotetrahydropyrimidin-1(2H)-yl)-1,3-dioxoisoindolin-5-yl)-3,3-difluoropiperidin-4-yl)piperazin-1-yl)methyl)piperidin-1-yl)pyridazine-3-carboxamide]	5 to 10	30 to 40	10 to 15	30 to 40	5 to 10	35 to 40							
CC(C)(O)c1cc2nn(C3CCN(Cc4ccc5c(c4)C(=O)N(N4CCC(=O)NC4=O)C5=O)CC3)cc2cc1NC(=O)c1cccc(C(F)(F)F)n1 [GT-05752, N-(2-(1-((2-(2,4-dioxotetrahydropyrimidin-1(2H)-yl)-1,3-dioxoisoindolin-5-yl)methyl)piperidin-4-yl)-6-(2-hydroxypropan-2-yl)-2H-indazol-5-yl)-6-(trifluoromethyl) picolinamide]							15 to 20	25 to 30					
N#CC1(CNc2nc(-c3cc(NC4CCN(CC5CCN(c6cccc7c6C(=O)N(N6CCC(=O)NC6=O)C7=O)CC5)CC4)ncc3Cl)cs2)CCOCC1 [GT-08345, 4-(((4-(5-chloro-2-((1-((1-(2-(2,4-dioxotetrahydropyrimidin-1(2H)-yl)-1,3-dioxoisoindolin-4-yl)piperidin-4-yl)methyl)piperidin-4-yl)amino)pyridin-4-yl)thiazol-2-yl)amino)methyl)tetrahydro-2H-pyran-4-carbonitrile]									20 to 30	5 to 10			
COc1cc(N2CCC(N3CCN(C)CC3)CC2)ccc1Nc1ncc(Cl)c(Nc2ccccc2P(C)(C)=O)n1 [brigatinib, Brigatinib, reference compound]											1000 to 5000	a (0% < a ≤ 10%)	a1 (10% < a1 ≤ 20%)
